Measurements taken from the NIST ThermoML archive (doi:10.1021/je100990n).
Several values for one entry are separate records, joined by “and”; a condition that tells them apart may be missing. Equal entries are not always repeated. ± gives the expanded uncertainty stated by the source.

Conditions: 293.15 K; 101.33 kPa; Liquid; Vibrating wire viscometry

**Q.** For `O` [water], which viscosity is on record?
**A.** Its viscosity is 1.002 ± 0.0087 mPa·s and 1.005 ± 0.0087 mPa·s and 0.9992 ± 0.0087 mPa·s.
